In patent publication US20040006070A1, “Intraspinal continuous infusion of midazolam hydrochloride for the treatment of pain” (priority 2002, published 2004):
Counter-ions that a name gives are not always drawn.

Assay: Bloodwork: complete blood count, electrolytes, extended blood chemistry
Assay type: in vivo, sheep
Conditions: for Total Bili: ref 0.14-0.32; for K+: ref 3.9-5.4; for Phos: ref 5-7.3; for Total Prot: ref 6-7.9
Description: Indirect blood pressure, pulse recording, pain testing (mechanical stimulus device, cold and warm water baths see description in procedure) and weight were taken on days 1, 3, 7, 15, 22, 29, 36, and 43. Venous blood samples (15 ml drawn from the jugular vein with Vacutainer brand blood collection tubes) for complete blood count, electrolytes, and extended blood chemistry were drawn on days 1, 15, and 43 (mild procedure only light hand restraint necessary).

[1] = sheep Chicken Hawk #87, 5 mg/day, Baseline
[2] = sheep Chicken Hawk #87, 5 mg/day, Day 1

For `Cc1ncc2n1-c1ccc(Cl)cc1C(c1ccccc1F)=NC2` [Midazolam, midazolam hydrochloride], the “Differential Count: Seg” value (sheep #518, 5 mg/day, Day 15) was 33%, the “Gamma GT” value (sheep #518, 5 mg/day, Day 15) was 90 U/L and the Glucose (sheep #518, 5 mg/day, Day 15) was 74 mg/dL. The Hct (sheep #518, 5 mg/day, Day 15) was 33.0%, the Hgb (sheep #518, 5 mg/day, Day 15) was 11.6 g/dL and the MCH (sheep #518, 5 mg/day, Day 15) was 9.6 pg. For the same compound, the MCHC (sheep #518, 5 mg/day, Day 15) was 31.3 G/dl, the MCV (sheep #518, 5 mg/day, Day 15) was 30.7 fL and the “Na+” value (sheep #518, 5 mg/day, Day 15) was 151 mEq/l. The “Platlet Count” value (sheep #518, 5 mg/day, Day 15) was 533000 µL⁻¹, the RBC (sheep #518, 5 mg/day, Day 15) was 1.208e+07 µL⁻¹ and the WBC (sheep #518, 5 mg/day, Day 15) was 5300 µL⁻¹. For the same compound, the “Total Bili” value (sheep #518, 5 mg/day, Day 15) was 0.1 mg/dL, the Creatinine (sheep #518, 5 mg/day, Day 15, ref 1-2.7) was 1.6 mg/dL and the Albumin (sheep #518, 5 mg/day, Day 15, ref 2.4-3) was 4.1 G/dl. The “K+” value (sheep #518, 5 mg/day, Day 15) was 4.6 mEq/l, the Phos (sheep #518, 5 mg/day, Day 15) was 5.1 mg/dL and the “Total Prot” value (sheep #518, 5 mg/day, Day 15) was 6.7 G/dl. The ALT (sheep #518, 5 mg/day, Day 43) was 12.0 U/L, the AST (sheep #518, 5 mg/day, Day 43) was 76 U/L and the “Alk Phos” value (sheep #518, 5 mg/day, Day 43) was 89 U/L. It also gave a BUN (sheep #518, 5 mg/day, Day 43) of 7 mg/dL, a CPK (sheep #518, 5 mg/day, Day 43) of 787 U/L and a Cholesterol (sheep #518, 5 mg/day, Day 43) of 69 mg/dL. For the same compound, the “Differential Count: Atyp lym” value (sheep #518, 5 mg/day, Day 43) was 1%, the “Differential Count: Eosin” value (sheep #518, 5 mg/day, Day 43) was 4% and the “Differential Count: Lymph” value (sheep #518, 5 mg/day, Day 43) was 48%. The “Differential Count: Seg” value (sheep #518, 5 mg/day, Day 43) was 47%, the “Gamma GT” value (sheep #518, 5 mg/day, Day 43) was 68 U/L and the Glucose (sheep #518, 5 mg/day, Day 43) was 89 mg/dL. For the same compound, the Hct (sheep #518, 5 mg/day, Day 43) was 44.6%, the Hgb (sheep #518, 5 mg/day, Day 43) was 13.7 g/dL and the MCH (sheep #518, 5 mg/day, Day 43) was 9.6 pg. The MCHC (sheep #518, 5 mg/day, Day 43) was 30.7 G/dl, the MCV (sheep #518, 5 mg/day, Day 43) was 31.1 fL and the “Na+” value (sheep #518, 5 mg/day, Day 43) was 152 mEq/l. The “Platlet Count” value (sheep #518, 5 mg/day, Day 43) was 448000 µL⁻¹, the RBC (sheep #518, 5 mg/day, Day 43) was 1.254e+07 µL⁻¹ and the WBC (sheep #518, 5 mg/day, Day 43) was 4800 µL⁻¹. For the same compound, the “Total Bili” value (sheep #518, 5 mg/day, Day 43) was 0.1 mg/dL, the Creatinine (sheep #518, 5 mg/day, Day 43, ref 1-2.7) was 1.7 mg/dL and the Albumin (sheep #518, 5 mg/day, Day 43, ref 2.4-3) was 3.5 G/dl. The “K+” value (sheep #518, 5 mg/day, Day 43) was 4.6 mEq/l, the Phos (sheep #518, 5 mg/day, Day 43) was 6.4 mg/dL and the “Total Prot” value (sheep #518, 5 mg/day, Day 43) was 6.2 G/dl. The “Differential Count: Atyp lym” value [1] was 0%, the “Differential Count: Baso” value [1] was 0% and the “Differential Count: Eosin” value [1] was 2%. The “Differential Count: Lymph” value [1] was 41%, the “Differential Count: Mono” value [1] was 4% and the “Differential Count: Seg” value [1] was 53%. It also gave a Hct [1] of 31.5%, a Hgb [1] of 10.8 g/dL and an MCH [1] of 11.0 pg. For the same compound, the MCHC [1] was 34.2 g/dL, the MCV [1] was 32.3 fL and the “Platlet Count” value [1] was 848000 µL⁻¹. For the same compound, the RBC [1] was 9.77e+06 µL⁻¹, the WBC [1] was 6180 µL⁻¹ and the ALT [2] was 4 U/L. For the same compound, the AST [2] was 63 U/L, the Albumin [2] was 3.2 g/dL and the “Alk Phos” value [2] was 54 U/L. For the same compound, the BUN [2] was 14 mg/dL, the CPK [2] was 163 U/L and the Cholesterol [2] was 71 mg/dL. The Creatinine [2] was 1.3 mg/dL, the “Differential Count: Atyp lym” value [2] was 0% and the “Differential Count: Baso” value [2] was 0%. For the same compound, the “Differential Count: Eosin” value [2] was 2%, the “Differential Count: Lymph” value [2] was 55% and the “Differential Count: Mono” value [2] was 7%. The “Differential Count: Seg” value [2] was 36% and the “Gamma GT” value [2] was 55 U/L.
